For data set [1], the system named is mice with OVA-induced allergic asthma. In words: Lung hyperreactivity / Penh by whole body plethysmography (Protocol-2). It is filed as in vivo, Balb/c mice. To be noted: for basal Penh measurement (non-challenged with methacholine): FIG. 9B. How it is done:
(§1) Male Balb/c SPF mice (26*2 g, 6 week-old) were purchased from the animal house facilities at the Faculty of Medicine (University of Sāo Paulo, Brazil). They were group-housed in a temperature-controlled room at 22° C. with a 12/12-hour light/dark cycle and allowed free access to food and water. The study is in agreement with the Ethical Principles for Animal Research established by the Brazilian College for Animal Experimentation (COBEA). According to the internal laboratory rules, euthanasia will be performed if severe distress related to the test agents developed during the experiment. Mice were sensitized with two subcutaneous injections of 0.2 ml of OVA/Al(OH)3, with an interval of 7 days (Sham animals received the Al(OH)3 suspension in PBS with no OVA). Chicken egg-white ovalbumin (OVA; grade V, cat. A5503, Sigma Chemical Co., St. Louis, Mo.) was dissolved in sterile phosphate buffered saline (PBS) solution (50 μg/ml) and Al(OH)3 was added (at 8 mg/ml). This mix was used to induce the allergic sensitization of the animals by subcutaneous injection. OVA was dissolved at 1% in sterile PBS solution and this solution was nebulized (as the immunological challenges). Seven days after the second sensitization (i.e., 3rd week), the animals were nebulized twice a week with the 1% OVA solution (Sham and untreated OVA groups were nebulized with PBS) during 20 minutes for the next 4 weeks. Thirty minutes before the challenges (OVA nebulization) and daily during the next 4 weeks, mice were intra-nasally treated (10 μl/animal as 5 μl/nostril) with the respective compounds/vehicle. […] Animals were killed at selected time points by overdose of enflurane and BAL and blood collected.
Airway responsiveness in conscious, spontaneously breathing animals was measured at the end of the 6th week (i.e., after 4 weeks OVA challenges+treatments), 24 h after the last OVA/PBS challenge via whole body plethysmography (Buxco Europe Ltd, Winchester, UK). Experiments were carried out in a quiet room by an investigator who was unaware of the nature of treatments. Aerosolized saline (50 μl/mouse during 60 s) and then the muscarinic agonist metacholine (MCh) at increasing concentrations (3.12, 6.25, 12.5 and 25.0 mg/ml in PBS) was nebulized through an inlet of the main chamber for 3 min each to induce bronchoconstriction and readings were taken and averaged for 6 min following each nebulization. After 20 min. the baseline values usually returned at the end of this period. Enhanced pause (Penh) was measured as an indicator of bronchoconstriction and consequent increase of airway resistance as: Penh=[(expiration time/relaxation time)−1][…].

For data set [2] the test system is unchanged. Nature of the data set: Plasma IgE levels by ELISA in OVA-sensitized mice (Protocol-1). It is filed as in vivo, Balb/c mice. Conditions: 1 mg/kg i.p.; FIG. 6C, 7C. How it is done: Balb/c mice (8-9 weeks old, Charles River, Calco, Italy) were housed in the animal care facility at the Department of Pharmacy of the University of Naples. Italy in a controlled environment (temperature 21±2° C. and humidity 60±10%) and provided with standard rodent chow and water. All animals were allowed to acclimate for four days prior to experiments and were subjected to 12 h light-12 h dark schedule. Each mouse was assigned an identity number and randomtzed to different groups so that all experiments were carried out in a blinded manner. The experimental procedures were approved by the Italian Ministry according to International and National law and policies (EU Directive 2010/63/EU and Italian DL 26/2014 for animal experiments, ARRIVE guidelines and the Basel declaration including the 3R concept). Animal studies are reported in compliance with the ARRIVE guidelines. Balb/c mice is the most widely mouse strain used to study asthma-like features in vivo and to investigate the undedying molecular and cellular mechanisms of allergen sensitization. Mice were treated subcutaneously (s.c.) with 0.4 mL (100 μg) of ovalbumin (OVA) complexed with alum (13 mg mL^−1) (OVA group) at day 0 and 7. Chicken egg-white ovalbumin (OVA: grade V. cat. A5503, Sigma Chemical Co., St. Louis, MO) was dissolved in sterile phosphate buffered saline (PBS) solution (250 μg/1 ml) and Al(OH)3 was added (at 13 mg/ml). This mix was used to induce the allergic sensitization of the animals by subcutaneous injection. OVA was dissolved at 3% in sterile PBS solution and this solution was nebulized (as the immunological challenges). At day 21 mice were exposed to OVA challenge for three days and then sacrificed. This experimental procedure induces in the mice an increase in plasma IgE levels and this effect is by itself sufficient to induce a significant increase in bronchial hyper-responsiveness and pulmonary inflammation, typical hallmarks of asthma. A group of animals was treated s.c. with saline (vehicle group). […] Animals were killed at selected time points by overdose of enflurane and bronchi and blood collected.
Blood was collected by intracardiac puncture using citrate as anticoagulant. Plasma was obtained by centrifugation at 800×g at 4′C for 10 minutes and immediately frozen at −80° C. Total IgE levels were measured by means of ELISA using matched antibody pairs (BD Biosciences Pharmingen San Jose, Calif.).
For orientation: An ELISA detects its analyte on a solid surface through an enzyme-linked reagent.

For data set [3] the test system is unchanged. Nature of the data set: Total and differential leukocyte counts in BAL fluid (Protocol-2). Format: in vivo, Balb/c mice. To be noted: 4 weeks; for BAL eosinophils (OVA-induced increase): 100 nmol/animal/day intranasal, FIG. 10. How it is done:
as §1
After Penh evaluation, the mice were anesthetized with inhaled isofluorane (5% v/v in O2) and blood samples were collected from the descending abdominal aorta. The mice were then euthanized by exsanguination and bronchoalveolar lavage (BAL) was performed by exposing and cannulating the trachea with a polyethylene tube (1 mm outer diameter) connected to a syringe. The lungs were washed by flushing 300 μL of heparin-containing PBS solution (20 UI/mL). The retrieved BAL lavage aliquots were obtained and the same procedure was repeated four additional times. The samples were centrifuged (1000 g for 10 min) and the cell pellet was resuspended in 200 μL of PBS solution, Total cell counts were determined using a Neubauer chamber, and differential counting was carried out in cytospin (Fanem Mod 2400; Sāo Paulo, Brazil) preparations stained with May-Grünwald dye. Leukocytes were classified based on morphological criteria.

For data set [4] the following is noted: 10 mg orally once daily at bedtime; cited from earlier work.
Data set [5] addresses T1, glucocorticoid receptor (Homo sapiens, UniProt P04150).
T1 sequence (P04150 1-777): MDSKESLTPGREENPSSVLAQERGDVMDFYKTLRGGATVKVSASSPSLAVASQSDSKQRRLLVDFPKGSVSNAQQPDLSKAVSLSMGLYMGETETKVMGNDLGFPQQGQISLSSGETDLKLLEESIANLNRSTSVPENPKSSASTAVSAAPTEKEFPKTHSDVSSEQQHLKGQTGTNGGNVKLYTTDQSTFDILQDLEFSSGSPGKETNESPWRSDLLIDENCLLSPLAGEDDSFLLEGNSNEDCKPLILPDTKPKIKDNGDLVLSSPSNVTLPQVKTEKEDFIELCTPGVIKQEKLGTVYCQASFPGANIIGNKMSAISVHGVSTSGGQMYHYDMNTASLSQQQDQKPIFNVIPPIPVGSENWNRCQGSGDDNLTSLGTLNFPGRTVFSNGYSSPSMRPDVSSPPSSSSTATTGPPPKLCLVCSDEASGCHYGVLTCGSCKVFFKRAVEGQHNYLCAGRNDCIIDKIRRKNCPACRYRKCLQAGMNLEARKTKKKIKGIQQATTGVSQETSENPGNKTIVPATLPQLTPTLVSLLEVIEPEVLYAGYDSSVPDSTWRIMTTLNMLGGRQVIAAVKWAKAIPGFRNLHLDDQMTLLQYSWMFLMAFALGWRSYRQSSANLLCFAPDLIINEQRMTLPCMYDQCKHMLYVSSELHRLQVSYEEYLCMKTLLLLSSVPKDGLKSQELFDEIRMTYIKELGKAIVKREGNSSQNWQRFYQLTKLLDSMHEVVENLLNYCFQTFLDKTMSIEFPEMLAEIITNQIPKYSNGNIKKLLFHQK
Conditions: higher than the parent compound; cited from earlier work.

For data set [6] the following is noted: intranasal administration at recommended doses; cited from earlier work.
For data set [7] the following is noted: in vivo; cited from earlier work.

“Also recorded” adds a separate entry of the source.

`CC(C)(O)c1ccccc1CC[C@@H](SCC1(CC(=O)O)CC1)c1cccc(/C=C/c2ccc3ccc(Cl)cc3n2)c1` [montelukast, (R,E)-2-(1-((1-(3-(2-(7-chloroquinolin-2-yl)vinyl)phenyl)-3-(2-(2-hydroxypropan-2-yl)phenyl)propylthio)-methyl)cyclopropyl)acetic acid]: the “basal Penh measurement (non-challenged with methacholine)” value in data set [1] (10 nmol/animal/day intranasal, daily for 4 weeks) is “significantly reduced the basal Penh measurement”; in data set [1] (10 nmol/animal/day intranasal, daily for 4 weeks, listed as Montelukast), “slightly decrease the basal (non-challenged with methacholine) response”. In data set [1] (10 nmol/animal/day intranasal, FIG. 9C-D), the “Penh parameters following methacholine challenge (Emax, AUC)” value was “did not affect the parameters measured following methacholine challenge”. Also, the “direct effects on lung function” value in data set [1] (10 nmol/day/animal intranasal) is reported as “negligible direct effects on lung function”. Besides, in data set [2], the “allergen induced plasma IgE increase” value is “did not affect IgE”. For the same compound, in data set [3] (10 nmol/animal/day intranasal, FIG. 11), the “BAL eosinophils / eosinophil recruitment to the lungs” value is “significantly reduced; also recorded: significant inhibitory effects on eosinophil recruitment to the lungs”.

Consider `CC(C)(O)c1ccccc1CC[C@@H](SCC1(CC(=O)[O-])CC1)c1cccc(/C=C/c2ccc3ccc(Cl)cc3n2)c1.[Na+]` [Montelukast sodium, (R,E)-2-(1-((1-(3-(2-(7-chloroquinolin-2-yl)vinyl)phenyl)-3-(2-(2-hydroxypropan-2-yl)phenyl)propylthio)-methyl)cyclopropyl)acetic acid monosodium salt], for which, in data set [4], the “variables of asthma control (FEV1, daytime and night time symptom scores, as-needed β-agonist use)” value is “improvement in variables of asthma control”.

Turning to `C[C@]12C=CC(=O)C=C1CC[C@@H]1[C@@H]2[C@@H](O)C[C@@]2(C)[C@H]1C[C@H]1O[C@@H](C3CCCCC3)O[C@]12C(=O)CO` [Des-ciclesonide, C21-desisobutyryl-ciclesonide], the “affinity for the glucocorticoid receptor relative to the parent compound (ciclesonide)” value in data set [5] is given as 120 times.

`CC(C)C(=O)OCC(=O)[C@@]12O[C@H](C3CCCCC3)O[C@@H]1C[C@H]1[C@@H]3CCC4=CC(=O)C=C[C@]4(C)[C@H]3[C@@H](O)C[C@@]12C` [ciclesonide, (11β,16α)-16,17-[[(R)-cyclohexylmethylene]bis(oxy)]-11-hydroxy-21-(2-methyl-1-oxopropoxy)pregna-1,4-diene-3,20-dione]: in data set [6], the “serum concentrations of ciclesonide” value is “negligible serum concentrations”. In addition, the “airway responsiveness, Penh (basal, methacholine Emax and AUC)” value in data set [1] (100 nmol/day/animal intranasal, daily for 4 weeks, FIG. 8A-D) is “Significant reduction of this response; also recorded: significantly reduced”. The cortisol suppression entry in data set [7] is listed as “comparable with placebo”. Also, the “allergen induced plasma IgE increase” value in data set [2] is reported as “significantly inhibited allergen induced IgE increase”. In addition, the “BAL eosinophils (OVA-induced increase)” value in data set [3] is reported as “significantly reduced”; in data set [3] (listed as Ciclesonide), “significantly reduced this increase”.

The values are drawn from patent US12338266B2 (GENETIC S.P.A., priority 2019, dated 2025).
